Series [1] deals with PC-12. Nature of the series: Neuroprotective activity against Abeta42-induced toxicity in rat PC12 cells assessed as increase in cell viability at 0.1 to 10 uM after 24 hrs by MTT assay. It counts as functional, cell-based. In general terms: Formazan colour is commonly taken as a measure of viable cells.
The test system of series [2] is PC-12. In words: Neuroprotective activity against H202-induced toxicity in rat PC12 cells assessed as increase in cell viability at 0.1 to 10 uM after 24 hrs by MTT assay. It counts as functional, cell-based.
The next series has as its target Cholinesterase (Equus caballus, UniProt P81908).
A further series has as its target Acetylcholinesterase (Torpedo californica, UniProt P04058).
Series [3] is described as follows: Metal chelating activity assessed as compound-Fe2+ complex formation at 25 uM after 30 mins by UV-spectrophotometric analysis. It counts as functional.
Series [4] is described as follows: Metal chelating activity assessed as compound-Cu2+ complex formation at 25 uM after 30 mins by UV spectrophotometric analysis. In kind it is functional.
Series [5] concerns PC-12. In words: Neuroprotective activity against H202-induced toxicity in rat PC12 cells assessed as increase in cell viability after 24 hrs by MTT assay. It counts as functional, cell-based.
Series [6] relates to PC-12. Nature of the series: Neuroprotective activity against Abeta42-induced toxicity in rat PC12 cells assessed as increase in cell viability after 24 hrs by MTT assay. In kind it is functional, cell-based.
The subject of series [7] is PC-12. In words: Cytotoxicity against rat PC12 cells at 0.1 to 10 uM after 24 hrs by MTT assay. It counts as cell-based. Particulars: pc-12, 24 h.

Our source for the Activity and IC50 values is ChEMBL document CHEMBL4038274, “Design, synthesis and biological evaluation of multifunctional tacrine-curcumin hybrids as new cholinesterase inhibitors with metal ions-chelating and neuroprotective property” (Bioorg Med Chem, 2017).

Active and inactive are the calls of the source. No cut-off for these calls is given here.

Cholinesterase, sequence (P81908 whole entry): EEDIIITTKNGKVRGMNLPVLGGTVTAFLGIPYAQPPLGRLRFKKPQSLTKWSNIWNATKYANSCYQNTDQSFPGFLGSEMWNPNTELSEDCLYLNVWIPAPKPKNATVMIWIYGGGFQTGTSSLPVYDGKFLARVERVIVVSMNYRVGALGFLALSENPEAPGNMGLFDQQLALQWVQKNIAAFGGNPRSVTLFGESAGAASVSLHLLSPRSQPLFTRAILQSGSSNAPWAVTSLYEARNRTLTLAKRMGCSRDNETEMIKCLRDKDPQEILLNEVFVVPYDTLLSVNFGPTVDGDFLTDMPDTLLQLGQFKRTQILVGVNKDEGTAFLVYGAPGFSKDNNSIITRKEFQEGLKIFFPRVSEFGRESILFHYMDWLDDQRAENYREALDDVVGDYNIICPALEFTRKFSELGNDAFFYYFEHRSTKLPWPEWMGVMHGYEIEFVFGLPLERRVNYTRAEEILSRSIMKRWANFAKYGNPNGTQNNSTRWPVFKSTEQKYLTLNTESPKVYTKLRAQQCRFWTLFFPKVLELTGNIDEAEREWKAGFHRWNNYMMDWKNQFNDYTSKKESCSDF
Acetylcholinesterase, sequence (P04058 whole entry): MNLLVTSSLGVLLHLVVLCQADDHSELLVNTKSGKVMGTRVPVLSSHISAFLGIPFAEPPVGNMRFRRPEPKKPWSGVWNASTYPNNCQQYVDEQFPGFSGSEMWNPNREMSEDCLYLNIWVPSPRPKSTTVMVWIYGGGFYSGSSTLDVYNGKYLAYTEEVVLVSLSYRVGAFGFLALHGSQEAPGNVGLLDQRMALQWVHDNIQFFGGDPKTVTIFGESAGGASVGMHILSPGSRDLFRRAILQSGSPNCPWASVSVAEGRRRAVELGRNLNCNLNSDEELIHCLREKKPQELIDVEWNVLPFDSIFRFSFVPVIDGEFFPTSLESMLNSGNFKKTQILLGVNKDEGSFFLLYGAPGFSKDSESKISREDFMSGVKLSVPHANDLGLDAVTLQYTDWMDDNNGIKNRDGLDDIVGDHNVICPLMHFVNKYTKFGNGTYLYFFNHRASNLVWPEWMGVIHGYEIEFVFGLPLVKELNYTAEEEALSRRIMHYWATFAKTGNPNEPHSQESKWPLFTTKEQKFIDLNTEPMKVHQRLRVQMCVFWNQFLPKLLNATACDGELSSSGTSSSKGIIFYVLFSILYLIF
Description for Acetylcholinesterase: Inhibition of Torpedo californica AChE using acetylthiocholine iodide as substrate preincubated for 5 mins followed by substrate addition measured at 1 min interval for 3 mins by Ellman's method

In the case of `COc1cc(/C=C/C(=O)CC(=O)/C=C/c2ccc(O)c(OC)c2)ccc1O`, the result in the series on PC-12 [1] and with PC-12 [2] was Active.
On to `CC(=O)C(Cc1ccc(O)cc1)C(=O)NCCCCNc1c2c(nc3ccccc13)CCCC2` (stereo not drawn), for which the figures for the IC50 against Cholinesterase and against Acetylcholinesterase were 390 nM and 1990 nM, respectively.
For `CC(=O)/C(=C\c1ccc(O)cc1)C(=O)NCCCNc1c2c(nc3ccccc13)CCCC2` the same measures were 1600 nM and 9640 nM.
For `CC(=O)/C(=C\c1ccc(O)cc1)C(=O)NCCCCNc1c2c(nc3ccccc13)CCCC2` the same measures were 4770 nM and 3800 nM.
For `COc1cc(CC(C(C)=O)C(=O)NCCCCNc2c3c(nc4ccccc24)CCCC3)ccc1O` (stereo not drawn) the same measures were 3380 nM and 3680 nM.
Regarding `CC(=O)C(Cc1ccc(O)cc1)C(=O)NCCCCCCNc1c2c(nc3ccccc13)CCCC2` (stereo not drawn), the IC50 (commonly the point on the concentration scale where inhibition reaches its midpoint) at Cholinesterase amounted to 200 nM; at Acetylcholinesterase it was 130 nM.
For `CC(=O)CC(=O)NCCCCCCNc1c2c(nc3ccccc13)CCCC2` the same measures were 220 nM and 570 nM.
Regarding `COc1cc(/C=C(\C(C)=O)C(=O)NCCCCNc2c3c(nc4ccccc24)CCCC3)ccc1O`, the IC50 against Cholinesterase was determined as 2110 nM; against Acetylcholinesterase it was 2100 nM.
Take `CC(=O)CC(=O)NCCCCNc1c2c(nc3ccccc13)CCCC2`: the outcome in [3] and in series [4] was Active. Besides, the IC50 was 160 nM against Cholinesterase and 90 nM against Acetylcholinesterase.
Turning to `COc1cc(/C=C(\C(C)=O)C(=O)NCCCNc2c3c(nc4ccccc24)CCCC3)ccc1O`, the IC50 against Cholinesterase turned out to be 1870 nM; against Acetylcholinesterase, 1260 nM.
For `CC(=O)CC(=O)NCCCNc1c2c(nc3ccccc13)CCCC2` the same measures were 60 nM and 240 nM.
For the compound `COc1cc(CC(C(C)=O)C(=O)NCCCNc2c3c(nc4ccccc24)CCCC3)ccc1O` (stereo not drawn), the IC50 on Cholinesterase is 1310 nM; against Acetylcholinesterase it was 5710 nM.
Regarding `COc1cc(/C=C(\C(C)=O)C(=O)NCCCCCCNc2c3c(nc4ccccc24)CCCC3)ccc1O`, the result in [3] and in series [4] was Active. Further, the IC50 was 1500 nM against Cholinesterase and 290 nM at Acetylcholinesterase.
With `CC(=O)/C(=C\c1ccc(O)cc1)C(=O)NCCCCCCNc1c2c(nc3ccccc13)CCCC2`, the values for the concentration for half-maximal inhibition (IC50) against Cholinesterase and on Acetylcholinesterase were 2240 nM and 2950 nM, respectively.
On to `CC(=O)C(Cc1ccc(O)cc1)C(=O)NCCCNc1c2c(nc3ccccc13)CCCC2` (stereo not drawn), for which the results for the IC50 at Cholinesterase and against Acetylcholinesterase were 830 nM and 8760 nM, respectively.
For the compound `COc1cc(CC(C(C)=O)C(=O)NCCCCCCNc2c3c(nc4ccccc24)CCCC3)ccc1O` (stereo not drawn), the result in series [3] and in [4] was Active. Further, the values for the Activity result with PC-12 [5], in the series with PC-12 [6] and in the series with PC-12 [7] were “Dose-dependent effect”, “Dose-dependent effect” and “Non-Toxic”, respectively. For the same compound, the IC50 at Cholinesterase worked out at 220 nM; at Acetylcholinesterase, 80 nM.
Take `CC(=O)CC(=O)NCCNc1c2c(nc3ccccc13)CCCC2`: the IC50 worked out at 310 nM against Cholinesterase and 460 nM at Acetylcholinesterase.
